One data set addresses T1, Human TRPA1 (Homo sapiens, UniProt O75762).
T1 construct: expressed in transfected cells; host or cells: CHO cells (grown with 400 μg/ml G-418)
The experiment in a line: 45Calcium uptake assay: inhibition of AITC induced cellular uptake of radioactive calcium. The data set is classed as cell-based. To be noted: human TRPA1 expressing CHO cells, AITC 30 μM; for inhibition at 1 µM: read-out: Percentage inhibition at 1.0 μM; for inhibition at 10 µM: read-out: Percentage inhibition at 10.0 μM.

Data set [1] is described as follows: Determination of solubility by shake flask method (water). In kind it is physicochemical. The settings on record: for solubility at 15 min: thermodynamic from solid, ‘P’ substituted thiazole compound, water, 37° C., shake flask. On the procedure:
About 1 mg of test substance was taken in test tube and water was added in the increment of 1 ml with shaking after addition of media (water). Solubility was observed visually also. After completion of addition of 10 ml volume of media (water), test tube containing sample solution were put on a mechanical shaker set at 37° C. and 200 rpm for shaking up to 15 minute. After shaking, content of flask was filtered through 0.45μ filter. This filtered solution is analyzed using HPLC method for quantification. A sample solution of 1 mg in 10 ml of DMSO is used as reference standard for quantifying dissolved test substance in media. Solubility is expressed as mcg/ml.
Aqueous solubility of ‘P’ substituted thiazole compounds and the parent thiazole compounds were determined using the above described procedure and the results are given Table 3.

A short description of data set [2]: Rat pharmacokinetic (PK) study, oral suspension. In kind it is in vivo, male rats (Sprague Dawley). To be noted: compared with the corresponding parent compound of formula (1). On the procedure: PK values were obtained in male rats (strain: Sprague Dawley) orally dosed with the compounds of the present invention as suspension. Accurately weighed quantity of compound of present invention (corrected for purity and salt factor) was transferred into a clean and dry mortar. To this mortar was added 2.5 μL/mL Tween 80 and triturated until the compound gets properly wet. To this, 0.5% (w/v) methyl cellulose suspension was added in geometric proportions and triturated thoroughly to form a uniform suspension.
Animals were provided with food and water ad libitum through out the study period. Animals were dosed orally with the compounds using a gavage needle at 10 mL/kg body weight. Blood samples (250 μl approx.) were collected from male Sprague Dawley retro orbital sinus using rat capillary tubes into 0.6 mL eppendorf tubes with tripotassium ethylenediaminetetraacetic acid (K3 EDTA) (25 μL) as anticoagulant. Samples were collected at 0.5, 1.0, 2.0, 4.0, 6.0, 8.0, 12.0 and 24.0 hr post dosing for compounds. Then samples were centrifuged immediately at 1000 g for 10 min. at 4° C. Plasma samples were separated and stored at −70° C. till analysis. Samples were processed and analyzed using LCMS/MS. Pharmacokinetic parameters were calculated using Winonlin software. Table 4 provides the pK values (Cmax, AUC) obtained in these studies.

Read-outs that look alike come from different tables or passages of the source.

T1 sequence (O75762 whole entry): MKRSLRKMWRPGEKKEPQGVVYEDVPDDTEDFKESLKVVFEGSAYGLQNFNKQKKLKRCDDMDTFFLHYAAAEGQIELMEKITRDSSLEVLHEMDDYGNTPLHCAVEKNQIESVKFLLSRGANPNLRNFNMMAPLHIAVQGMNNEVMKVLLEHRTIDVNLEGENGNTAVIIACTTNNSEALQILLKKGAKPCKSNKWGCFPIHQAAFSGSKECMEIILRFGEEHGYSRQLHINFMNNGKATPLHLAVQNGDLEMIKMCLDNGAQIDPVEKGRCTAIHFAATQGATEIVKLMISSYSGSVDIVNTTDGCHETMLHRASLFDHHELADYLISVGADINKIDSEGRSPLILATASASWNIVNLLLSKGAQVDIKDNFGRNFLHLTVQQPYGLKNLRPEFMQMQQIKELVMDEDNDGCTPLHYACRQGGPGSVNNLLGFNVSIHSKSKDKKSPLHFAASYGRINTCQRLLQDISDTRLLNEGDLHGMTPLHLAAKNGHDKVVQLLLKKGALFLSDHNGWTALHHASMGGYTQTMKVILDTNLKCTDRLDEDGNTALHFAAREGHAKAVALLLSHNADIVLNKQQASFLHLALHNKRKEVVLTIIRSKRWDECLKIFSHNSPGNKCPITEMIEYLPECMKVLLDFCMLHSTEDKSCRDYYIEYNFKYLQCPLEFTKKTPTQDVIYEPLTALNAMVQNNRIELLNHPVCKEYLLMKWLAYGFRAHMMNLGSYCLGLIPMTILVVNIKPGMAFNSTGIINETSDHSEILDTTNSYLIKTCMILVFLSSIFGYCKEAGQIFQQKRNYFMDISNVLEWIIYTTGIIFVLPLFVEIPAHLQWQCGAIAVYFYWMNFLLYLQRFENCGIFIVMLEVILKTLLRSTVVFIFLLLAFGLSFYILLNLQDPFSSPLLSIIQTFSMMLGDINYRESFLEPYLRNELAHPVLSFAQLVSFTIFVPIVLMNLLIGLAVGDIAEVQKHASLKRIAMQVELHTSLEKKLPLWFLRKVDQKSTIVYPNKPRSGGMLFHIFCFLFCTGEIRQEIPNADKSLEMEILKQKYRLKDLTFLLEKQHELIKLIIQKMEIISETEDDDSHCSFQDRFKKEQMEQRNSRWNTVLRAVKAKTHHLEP

Turning to `Cn1c(=O)c2c(CC(=O)/N=c3\scc(-c4ccc(C(F)(F)F)c(F)c4)n3COP(=O)(O)O)csc2n(C)c1=O` [Example 11, [2-{[(1,3-Dimethyl-2,4-dioxo-1,2,3,4-tetrahydrothieno[2,3-d]pyrimidin-5-yl)acetyl]imino}-4-[3-fluoro-4-(trifluoromethyl)phenyl]-1,3-thiazol-3 (2H)-yl]methyl dihydrogen phosphate], the inhibition at 1 µM at Human TRPA1 (1.0 μM) amounted to 53.4%. Besides, on Human TRPA1, the inhibition at 10 µM came to 99.8% and the IC50 was more than 500 nM. For the same compound, the “aqueous solubility over the parent thiazole acetamide” value in data set [1] (compared with the corresponding parent compound of formula (1)) is on record as “better aqueous solubility”. The “pharmacokinetic properties (Cmax and AUC) compared to the parent thiazole acetamide” value in data set [2] was “better pharmacokinetic properties”.
Regarding `Cc1oc2c(c1CC(=O)/N=c1\scc(-c3ccc(OC(F)(F)F)c(Cl)c3)n1COP(=O)(O)O)c(=O)n(C)c(=O)n2C` [Example 25, [4-[3-Chloro-4-(trifluoromethoxy)phenyl]-2-{[(1,3,6-trimethyl-2,4-dioxo-1,2,3,4-tetrahydrofuro[2,3-d]pyrimidin-5-yl)acetyl]imino}-1,3-thiazol-3 (2H)-yl]methyl dihydrogen phosphate], on Human TRPA1 (1.0 μM), the “Percentage inhibition at 1.0 μM” value was determined as 46.47%. Moreover, the inhibition at 10 µM at Human TRPA1 (CHO) was found to be 97.8%. In addition, the 50% inhibitory concentration (IC50) on Human TRPA1 was more than 500 nM. This compound gave a solubility at 15 min in data set [1] of more than 10 µg/mL. Further, the “pharmacokinetic properties (Cmax and AUC) compared to the parent thiazole acetamide” value in data set [2] is given as “better pharmacokinetic properties”.
As for `Cn1nc2c(c1CC(=O)/N=c1\scc(-c3ccc(F)c(C(F)(F)F)c3F)n1COP(=O)(O)O)c(=O)n(C)c(=O)n2C` [Example 28, 4-(2,4-Difluoro-3-(trifluoromethyl)phenyl)-2-((2-(2,5,7-trimethyl-4,6-dioxo-4,5,6,7-tetrahydro-2H-pyrazolo[3,4-d]pyrimidin-3-yl)acetyl)imino)thiazol-3 (2H)-yl)methyl dihydrogen phosphate], at Human TRPA1 (CHO, 1.0 μM), the inhibition at 1 µM came to 29.5%. Besides, the inhibition at 10 µM on Human TRPA1 (CHO) amounted to 92.4%. The concentration for half-maximal inhibition (IC50) at Human TRPA1 is more than 500 nM. Moreover, the solubility at 15 min in data set [1] was more than 30 µg/mL. Also, the “pharmacokinetic properties (Cmax and AUC) compared to the parent thiazole acetamide” value in data set [2] was “better pharmacokinetic properties”.

The record behind these values is US9073955B2, “2-amino-4-arylthiazole compounds as TRPA1 antagonists” (Glenmark Pharmaceuticals, S.A., priority 2010, dated 2015).
